Source: patent US8829015B2 (Novartis AG, priority 2005, dated 2014)
Several values for one entry are separate records, joined by “and”; a condition that tells them apart may be missing. Equal entries are not always repeated. Entries after “also recorded” stand apart in the source; their conditions may differ. Structures can show the parent of a compound that is named as a salt.

Tests used:
[1] = Form conversion on exposure to solvent vapor, air, moisture or room conditions; format: physicochemical
[2] = Equilibration of A-B mixtures of the hydrochloride salt in solvents; format: physicochemical
[3] = Equilibration of hydrochloride forms A, B and C with solvents, XRPD; format: physicochemical
Text: Then the solutions were filtered and the solid part investigated by XRPD.

[4] = physchem; conditions: thermodynamic from solid
[5] = Intrinsic dissolution rate (rotating disk); format: physicochemical
Procedure: Intrinsic Dissolution Rate (IDR): Dissolution rate measurements were performed at 37° C. using the rotating disk method (VanKell Instrument). A single rotation speed of 200 rpm was used. For IDR in 0.1N HCl, an 800 mL volume, and for IDR in water, a 200 mL volume were used. The solution was continuously pumped through a UV measuring cell and recycled to the dissolution vessel.
The measurements were carried out on a VanKel instrument using a Cary 100 photometer.

[6] = Stability studies on storage; format: physicochemical; conditions: for form transition after storage: storage at various relative humidities; for form after storage: 1 month at 80° C. and 75% relative humidity
[7] = Solubility by gravimetric techniques at different temperatures, residue by XRPD
[8] = Equilibration of free base forms with solvents, XRPD; format: physicochemical; conditions: seven solvents (ethanol absolute, methanol, tetrahydrofuran, water, tetrahydrofuran/water, ethanol/water, methanol/water 1:1), one day, 25° C.
Text: The solid part was investigated by XRPD.

[9] = methanol/water (95/5) v/v, 20 °C, organic solvent or mixture
[10] = methanol/water (95/5) v/v, 45 °C, organic solvent or mixture
[11] = methanol/water (95/5) v/v, -10 °C, organic solvent or mixture
[12] = methanol/water (99.5/0.5) v/v, 20 °C, organic solvent or mixture
[13] = methanol/water (99.5/0.5) v/v, 45 °C, organic solvent or mixture
[14] = dissolution medium HCl 0.0001 N
[15] = dissolution medium pH 2 (citrate buffer)
[16] = 0.0001N HCl, 25° C., after 24 hours
[17] = 0.001N HCl, 50° C., after 24 hours
[18] = 0.01N HCl, 25° C., after 24 hours
[19] = 0.1N HCl, 50° C., after 24 hours
[20] = Methanol, 50° C., after 24 hours
[21] = Methanol/Water (95/5) v/v, 20° C., 1 hour
[22] = Methanol/Water (95/5) v/v, 45° C., 1 hour
[23] = Methanol/Water (95/5) v/v, −10° C., 24 hours
[24] = Methanol/Water (99.5/0.5) v/v, 20° C., 10 minutes
[25] = Methanol/Water (99.5/0.5) v/v, 20° C., 1 hour
[26] = Methanol/Water (99.5/0.5) v/v, 45° C., 10 minutes
[27] = Methanol/Water (99.5/0.5) v/v, 45° C., 1 hour
[28] = Methanol/Water (99.5/0.5) v/v, 45° C., 24 hours
[29] = Methanol/Water (99.5/0.5) v/v, −10° C., 10 minutes
[30] = Methanol/Water (99.5/0.5) v/v, −10° C., 1 hour
[31] = in the presence of methanol vapor
[32] = 0.001N HCl, 25° C., after 24 hours

Cc1cn(-c2cc(NC(=O)c3ccc(C)c(Nc4nccc(-c5cccnc5)n4)c3)cc(C(F)(F)F)c2)cn1 [Form C′ of the hydrochloride salt]
form conversion ([1]; under room conditions): converts within a few minutes under room conditions to a mixture of forms B and C

Cc1cn(-c2cc(NC(=O)c3ccc(C)c(Nc4nccc(-c5cccnc5)n4)c3)cc(C(F)(F)F)c2)cn1
Form after equilibration of A-B mixture ([2]; Methanol 0.25% water, 24 hours 40° C., ? = extra peak (unclear whether new form or free base)): B/? | Form after equilibration of A-B mixture ([2]; Methanol 10% water, significant enrichment in A after 12 hours): A/B

Cc1cn(-c2cc(NC(=O)c3ccc(C)c(Nc4nccc(-c5cccnc5)n4)c3)cc(C(F)(F)F)c2)cn1 [Form SC of the hydrochloride salt]
form conversion ([1]; exposed to air): converts quickly to the monohydrate form C when exposed to air

Cc1cn(-c2cc(NC(=O)c3ccc(C)c(Nc4nccc(-c5cccnc5)n4)c3)cc(C(F)(F)F)c2)cn1 [Form A of the hydrochloride salt]
form transition on equilibration ([3]; methanol, 50° C., 1 day): transitioned to a mixture of forms B and C | form transition on equilibration ([3]; methanol, one day, 25° C.): transitioned to form B | form transition on equilibration ([3]; methanol/HCl 0.1N, 50° C., 1 day): transitioned to form C | form transition on equilibration ([3]; methanol/HCl 0.1N, one day, 25° C.): transitioned to form B with a small amount of form C | form transition on equilibration ([3]; methanol/water (99:1), 50° C., 1 day): transitioned to form C | form transition on equilibration ([3]; methanol/water (99:1), one day, 25° C.): transitioned to form C with a small amount of form B | form transition on equilibration ([3]; methanol/water (99.3:0.7), 50° C., 1 day): transitioned to form C | form transition on equilibration ([3]; methanol/water (99.3:0.7), one day, 25° C.): transitioned to form B with a small amount of form C | solubility at 24 h ([4]; 0.001N HCl, 25 °C, aqueous buffer): 0.92 mg/mL | solubility at 24 h ([4]; 0.01N HCl, 50 °C, simulated gastric fluid): 0.85 mg/mL | solubility at 24 h ([4]; 0.1N HCl, 25 °C, simulated gastric fluid): 1.32 mg/mL | solubility at 24 h ([4]; methanol, 25 °C, organic solvent or mixture): 13.8 mg/mL | solubility at 24 h ([4]; methanol, 50 °C, organic solvent or mixture): 52.5 mg/mL | solubility at 10 min [4, 9]: 25.7 mg/mL | solubility at 24 h [4, 9]: 13.1 mg/mL | solubility at 10 min [4, 10]: 46.1 mg/mL | solubility at 1 h [4, 10]: 61.1 mg/mL | solubility at 10 min [4, 11]: 12.3 mg/mL | solubility at 1 h [4, 11]: 14.4 mg/mL | solubility at 10 min [4, 12]: 33.7 mg/mL | solubility at 24 h [4, 12]: 12.2 mg/mL | solubility at 10 min [4, 13]: 52.2 mg/mL | solubility at 1 h [4, 13]: 62.5 mg/mL | solubility at 24 h [4, 13]: 41.9 mg/mL | solubility at 24 h ([4]; methanol/water (99.5/0.5) v/v, -10 °C, organic solvent or mixture): 4.96 mg/mL | solubility at 24 h ([4]; water, 50 °C): 1.03 mg/mL | Intrinsic Dissolution Rate value [5, 14]: 0.0003 mg/min/cm^2 | Intrinsic Dissolution Rate value ([5]; dissolution medium HCl 0.001 N): 0.0089 mg/min/cm^2 | Intrinsic Dissolution Rate value ([5]; dissolution medium HCl 0.01 N): 0.0178 mg/min/cm^2 | Intrinsic Dissolution Rate value ([5]; dissolution medium HCl 0.1 N): 0.6778 mg/min/cm^2 and 1.2467 mg/min/cm^2 | Intrinsic Dissolution Rate value ([5]; dissolution medium Water): 0.0004 mg/min/cm^2 | Intrinsic Dissolution Rate value [5, 15]: 0.0076 mg/min/cm^2 | form transition after storage [6]: No form transitions were observed | Solubility [7, 16]: 0.45 mg/mL | Solubility [7, 17]: 0.79 mg/mL | Solubility [7, 18]: 0.43 mg/mL | Solubility [7, 19]: 2.46 mg/mL | XRPD (form of the solid) [7, 20]: C + B | Solubility [7, 21]: 28.18 mg/mL | XRPD (form of the solid) [7, 22]: A + B + C | Solubility [7, 23]: 4.74 mg/mL | XRPD (form of the solid) [7, 24]: A + B | XRPD (form of the solid) [7, 25]: A + B | XRPD (form of the solid) [7, 26]: A + B | XRPD (form of the solid) [7, 27]: C + B | XRPD (form of the solid) [7, 28]: C + B | Solubility [7, 29]: 24.01 mg/mL | Solubility [7, 30]: 26.37 mg/mL | Solubility ([7]; Water, 25° C., after 24 hours): 0.35 mg/mL | form conversion [1, 31]: converts to form B

Cc1cn(-c2cc(NC(=O)c3ccc(C)c(Nc4nccc(-c5cccnc5)n4)c3)cc(C(F)(F)F)c2)cn1 [Form A′ of the hydrochloride salt]
form conversion ([1]; under room conditions): converts within a few minutes under room conditions to form A

Cc1cn(-c2cc(NC(=O)c3ccc(C)c(Nc4nccc(-c5cccnc5)n4)c3)cc(C(F)(F)F)c2)cn1 [Form SB of the hydrochloride salt]
form conversion ([1]; exposed to air): converts quickly to the monohydrate form B when exposed to air

Cc1cn(-c2cc(NC(=O)c3ccc(C)c(Nc4nccc(-c5cccnc5)n4)c3)cc(C(F)(F)F)c2)cn1 [form A/form B (1:1)]
form transition on equilibration [8]: No form transitions occurred

Cc1cn(-c2cc(NC(=O)c3ccc(C)c(Nc4nccc(-c5cccnc5)n4)c3)cc(C(F)(F)F)c2)cn1 [Amorphous form of the hydrochloride salt]
Intrinsic Dissolution Rate value ([5]; dissolution medium HCl 0.1 N): 0.2508 mg/min/cm^2 | Intrinsic Dissolution Rate value [5, 15]: 0.0250 mg/min/cm^2 | form after storage [6]: showed a mixture with form A | form transition after storage [6]: spontaneously crystallizes to form A; also recorded: spontaneously converts to the form A hydrochloride salt | form conversion [1, 31]: converts to form B

Cc1cn(-c2cc(NC(=O)c3ccc(C)c(Nc4nccc(-c5cccnc5)n4)c3)cc(C(F)(F)F)c2)cn1 [Form B′ of the hydrochloride salt]
form conversion ([1]; exposed to moisture): converts back to the monohydrate | form conversion ([1]; under room conditions): converts within a few minutes under room conditions to form B

Cc1cn(-c2cc(NC(=O)c3ccc(C)c(Nc4nccc(-c5cccnc5)n4)c3)cc(C(F)(F)F)c2)cn1 [Form C of the hydrochloride salt]
form transition on equilibration ([3]; ethanol/water (99:1), 50° C., 1 day): transitioned to a mixture of all three forms | form transition on equilibration ([3]; methanol, 50° C., 1 day): transitioned to form B | form transition on equilibration ([3]; methanol, one day, 25° C.): transitioned to form B | form transition on equilibration ([3]; tetrahydrofuran, 50° C., 1 day): to a mixture of forms B and C | form transition on equilibration ([3]; water, 50° C., 1 day): transitioned to form A | form transition on equilibration ([3]; water, one day, 25° C.): transitioned to form A | Intrinsic Dissolution Rate value [5, 14]: 0.0004 mg/min/cm^2 | Intrinsic Dissolution Rate value ([5]; dissolution medium HCl 0.001 N): 0.0057 mg/min/cm^2 | Intrinsic Dissolution Rate value ([5]; dissolution medium HCl 0.01 N): 0.0247 mg/min/cm^2 | Intrinsic Dissolution Rate value ([5]; dissolution medium HCl 0.1 N): 0.2323 mg/min/cm^2 and 0.3213 mg/min/cm^2 | Intrinsic Dissolution Rate value ([5]; dissolution medium Water): 0.000 mg/min/cm^2 | Intrinsic Dissolution Rate value [5, 15]: 0.0099 mg/min/cm^2 | form after storage [6]: showed a mixture with form A | form transition after storage [6]: No form transitions were observed | Solubility [7, 16]: 1.67 mg/mL | XRPD (form of the solid) [7, 16]: C + A | Solubility [7, 32]: 1.29 mg/mL | XRPD (form of the solid) [7, 32]: C + A | Solubility [7, 17]: 6.72 mg/mL | Solubility [7, 18]: 1.37 mg/mL | Solubility ([7]; 0.01N HCl, 50° C., after 24 hours): 1.69 mg/mL | Solubility ([7]; 0.1N HCl, 25° C., after 24 hours): 2.35 mg/mL | Solubility [7, 19]: 8.30 mg/mL | XRPD (form of the solid) [7, 19]: A+ | Solubility ([7]; Methanol, 25° C., after 24 hours): 18.20 mg/mL | Solubility [7, 20]: 55.26 mg/mL | Solubility ([7]; Methanol/Water (95/5) v/v, 20° C., 10 minutes): 18.88 mg/mL | Solubility [7, 21]: 13.03 mg/mL | Solubility ([7]; Methanol/Water (95/5) v/v, 20° C., 24 hours): 11.76 mg/mL | Solubility ([7]; Methanol/Water (95/5) v/v, 45° C., 10 minutes): 37.68 mg/mL | Solubility [7, 22]: 31.15 mg/mL | Solubility ([7]; Methanol/Water (95/5) v/v, 45° C., 24 hours): 32.26 mg/mL | Solubility ([7]; Methanol/Water (95/5) v/v, −10° C., 10 minutes): 9.73 mg/mL | Solubility ([7]; Methanol/Water (95/5) v/v, −10° C., 1 hour): 7.74 mg/mL | Solubility [7, 23]: 11.00 mg/mL | Solubility [7, 24]: 24.34 mg/mL | Solubility [7, 25]: 17.70 mg/mL | XRPD (form of the solid) [7, 25]: C + B | Solubility ([7]; Methanol/Water (99.5/0.5) v/v, 20° C., 24 hours): 12.09 mg/mL | Solubility [7, 26]: 39.86 mg/mL | Solubility [7, 27]: 46.15 mg/mL | Solubility [7, 28]: 45.59 mg/mL | XRPD (form of the solid) [7, 28]: C + B | Solubility [7, 29]: 11.91 mg/mL | Solubility [7, 30]: 7.99 mg/mL | Solubility ([7]; Methanol/Water (99.5/0.5) v/v, −10° C., 24 hours): 6.12 mg/mL | Solubility ([7]; Water, 25° C., after 24 hours): 1.47 mg/mL | XRPD (form of the solid) ([7]; Water, 25° C., after 24 hours): C + A | Solubility ([7]; Water, 50° C., after 24 hours): 1.31 mg/mL | form conversion [1, 31]: converts to form B
